Experimental data published in ChEMBL document CHEMBL1127982, “Synthesis, chemical half-life and decomposition of new N3-(substituted) derivatives of CCNU” (Bioorg Med Chem Lett, 1994).

Columns and labels:
[1] = Partition coefficient (logD7.4); settings: octanol/water, pH 7.4
[2] = Chemical half-life was determined
[3] = HChemical half-life was determined, not active; type: ADME
[4] = Chemical half-life was determined; not active; type: ADME

logD [1] | half-life [2] [h] | Structure (SMILES) | also measured
2.36 | – | CC(C)N(C(=O)NCCCl)C1CCCCC1 | –
1.48 | – | C=CCN(C(=O)NCCCl)C1CCCCC1 | –
0.37 | – | CC(O)CN(C(=O)NCCCl)C1CCCCC1 (centres undefined) | –
1.93 | – | CC(C)CN(C(=O)NCCCl)C1CCCCC1 | –
1.41 | – | CN(C(=O)NCCCl)C1CCCCC1 | –

The next lines start with the molecule.

Structure (SMILES) | logD [1] | half-life [2] [h] | also measured
CC(O)CN(C(=O)N(CCCl)N=O)C1CCCCC1 (centres undefined) | – | 43.3 | –
O=NN(CCCl)C(=O)N(C1CCCCC1)C1CCCCC1 | – | 62.6 | –
CCN(C(=O)N(CCCl)N=O)C1CCCCC1 | – | 132 | –
O=NN(CCCl)C(=O)N(CCCO)C1CCCCC1 | – | – | T1/2 [3]: Not Active
CC(C)(C)N(C(=O)NCCCl)C1CCCCC1 | 3.03 | – | –
C#CCN(C(=O)N(CCCl)N=O)C1CCCCC1 | – | 76.8 | –
CCCN(C(=O)N(CCCl)N=O)C1CCCCC1 | – | 69.8 | –
CN(C(=O)N(CCCl)N=O)C1CCCCC1 | – | 47.8 | –
CC(C)(C)N(C(=O)N(CCCl)N=O)C1CCCCC1 | 2.46 | – | T1/2 [4]: Not Active
CC(C)N(C(=O)N(CCCl)N=O)C1CCCCC1 | 1.78 | 32.9 | –
O=NN(CCCl)C(=O)NC1CCCCC1 [LOMUSTINE] | 2.83 | 2.1 | –
